Results: patent publication US11040981B2, “Pyrrolotriazine compounds and methods of inhibiting TAM kinases” (Syros Pharmaceuticals, Inc., priority 2017, dated 2021)

Legend:
TYRO3 = biological target: T1, TYRO3 (Homo sapiens, UniProt Q06418); assay: TR-FRET kinase activity assay, TYRO3; assay type: biochemical; conditions: ATP at Km, 60 minutes
T1 sequence (Q06418 41-890): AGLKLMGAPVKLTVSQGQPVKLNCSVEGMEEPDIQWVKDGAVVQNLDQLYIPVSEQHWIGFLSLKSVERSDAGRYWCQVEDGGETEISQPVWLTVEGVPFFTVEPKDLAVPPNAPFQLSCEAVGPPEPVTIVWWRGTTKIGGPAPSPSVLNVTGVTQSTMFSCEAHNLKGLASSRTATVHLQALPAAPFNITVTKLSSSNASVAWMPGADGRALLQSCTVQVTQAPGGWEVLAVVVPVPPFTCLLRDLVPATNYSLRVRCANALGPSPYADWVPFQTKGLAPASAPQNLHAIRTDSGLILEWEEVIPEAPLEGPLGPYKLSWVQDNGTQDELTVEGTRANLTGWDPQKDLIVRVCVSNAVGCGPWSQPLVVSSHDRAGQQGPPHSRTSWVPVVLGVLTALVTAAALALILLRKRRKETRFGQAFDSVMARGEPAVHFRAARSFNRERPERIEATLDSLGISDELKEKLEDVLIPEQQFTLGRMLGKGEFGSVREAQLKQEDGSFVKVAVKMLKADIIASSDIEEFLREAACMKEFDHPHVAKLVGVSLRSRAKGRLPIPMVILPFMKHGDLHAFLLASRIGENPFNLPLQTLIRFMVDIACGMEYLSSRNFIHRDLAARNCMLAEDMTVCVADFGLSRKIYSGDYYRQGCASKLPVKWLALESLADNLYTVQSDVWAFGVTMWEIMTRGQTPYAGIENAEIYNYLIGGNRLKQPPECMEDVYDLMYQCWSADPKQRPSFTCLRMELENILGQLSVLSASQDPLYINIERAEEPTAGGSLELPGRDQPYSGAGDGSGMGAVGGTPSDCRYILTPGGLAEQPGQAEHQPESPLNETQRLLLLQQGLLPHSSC
Protocol: IC50 values for compound inhibition of AXL, FLT3, MERTK and TYRO3 activity were determined by using a TR-FRET activity assay. A polypeptide substrate with a fluorescent label is phosphorylated on a tyrosine by each enzyme, where the now phosphorylated product is bound by a Europium-labeled antibody specific to that phosphorylation site. The proximity between the antibody and the substrate gives a signal known as TR-FRET. As the enzyme is inhibited by compound, less phosphorylated peptide product is made causing a decrease in overall signal.
Activity assays were performed in a 384-well, small volume, black microplates in an active enzyme volume of 10 μL and final developed volume of 20 μL. Final assay conditions are 50 mM HEPES pH 7.5, 10 mM MgCl2, 1 mM EGTA, 0.01% Brij 35 and 1 mM DTT all at RT. Enzyme, substrate labeled peptide and compound are mixed, and then the reaction is initiated with the addition of ATP at Km concentration for each enzyme. The reaction is allowed to run 60 minutes and then quenched with a 12.5 mM EDTA (ethylenediamine tetraacetic acid) solution. The plate is then developed with the addition of Europium labeled antibody for a final volume of 20 μL and is then incubated for 30 minutes in darkness. Plates are read in a Pherastar plate reader. Data is analyzed in GraphPad PRISM.
The results of these assays are shown in Table 1, below, wherein “No.” designates compound number (FIG. 1); “A” represents a value of ≤100 nM; “B” a value of >100 nM and ≤1 μM; “C” a value of >1 μM and ≤10 μM; “D” a value of >10 μM; “ND” is not determined. The ratio of Mer to FLT3 is calculated as follows: FLT3 IC50/Mer IC50. “+” represents a ratio of >2.0 and <10; “++” represents a ratio of between 10 and 100; and “+++” represents a ratio of >100.

MERTK = biological target: T2, MERTK (Homo sapiens, UniProt Q12866); assay: TR-FRET kinase activity assay, MERTK; assay type: biochemical; conditions: for IC50: TR-FRET activity assay, ATP at Km, 60 minutes, read-out: Mer IC50; for FLT3/Mer ratio (FLT3 IC50/Mer IC50): ratio of Mer to FLT3: FLT3 IC50/Mer IC50
T2 sequence (Q12866 21-999): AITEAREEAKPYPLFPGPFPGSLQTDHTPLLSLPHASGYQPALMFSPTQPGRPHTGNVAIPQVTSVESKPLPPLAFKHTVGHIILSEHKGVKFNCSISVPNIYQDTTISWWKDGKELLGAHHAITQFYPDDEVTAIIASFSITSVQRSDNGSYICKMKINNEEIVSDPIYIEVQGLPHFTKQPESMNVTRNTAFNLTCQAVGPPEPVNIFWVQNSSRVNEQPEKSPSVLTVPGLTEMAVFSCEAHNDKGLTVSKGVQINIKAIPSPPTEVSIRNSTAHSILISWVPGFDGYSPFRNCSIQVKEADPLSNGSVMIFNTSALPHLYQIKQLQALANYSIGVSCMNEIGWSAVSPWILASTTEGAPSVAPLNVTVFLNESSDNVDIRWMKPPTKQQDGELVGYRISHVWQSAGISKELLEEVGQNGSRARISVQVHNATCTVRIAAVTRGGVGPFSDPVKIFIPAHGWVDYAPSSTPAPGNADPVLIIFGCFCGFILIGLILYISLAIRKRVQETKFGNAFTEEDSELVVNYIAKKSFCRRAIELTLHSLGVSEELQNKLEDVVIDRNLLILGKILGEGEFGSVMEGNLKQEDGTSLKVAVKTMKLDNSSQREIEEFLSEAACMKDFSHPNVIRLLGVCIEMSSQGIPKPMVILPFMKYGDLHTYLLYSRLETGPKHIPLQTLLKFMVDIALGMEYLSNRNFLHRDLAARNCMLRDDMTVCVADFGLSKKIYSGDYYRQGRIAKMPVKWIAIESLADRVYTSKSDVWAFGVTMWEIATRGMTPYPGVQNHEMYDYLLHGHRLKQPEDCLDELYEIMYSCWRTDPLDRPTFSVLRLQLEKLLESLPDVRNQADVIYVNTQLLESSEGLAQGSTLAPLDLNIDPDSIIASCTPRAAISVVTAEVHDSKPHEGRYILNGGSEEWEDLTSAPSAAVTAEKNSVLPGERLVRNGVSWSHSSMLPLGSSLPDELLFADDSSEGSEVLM
In short: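 Compounds were tested against each kinase with ATP set at its own Km and a labelled tyrosine peptide substrate. Following one hour at room temperature in buffer containing 10 mM MgCl2 and 1 mM DTT, phosphorylated product was detected by Europium antibody TR-FRET after EDTA quench, and IC50 values were calculated.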

| Compound | IC50 (TYRO3) | IC50 (MERTK) | FLT3/Mer ratio (FLT3 IC50/Mer IC50) (MERTK) |
| --- | --- | --- | --- |
| COC[C@H](C)Nc1ncc2c(-c3cnn(CCC#N)c3)cc([C@H]3CC[C@H](O)CC3)n2n1 [Compound 222] | ≤ 100 nM | ≤ 100 nM | +++ (“+++” represents a ratio of >100) |
| CNC(=O)c1cncc(-c2cc([C@H]3CC[C@H](O)CC3)n3nc(N[C@@H](C)COC)ncc23)c1 [Compound 245] | ≤ 100 nM | ≤ 100 nM | +++ (“+++” represents a ratio of >100) |
| CC(CCF)Nc1ncc2c(-c3ccc(CN4CCOCC4)cc3)cc(C3CCC(O)CC3)n2n1 (stereo not drawn) [Compound 244] | ≤ 100 nM | ≤ 100 nM | ++ (“++” represents a ratio of between 10 and 100) |
| COC[C@H](C)Nc1ncc2c(-c3ccc(C(=O)NC(C)C)nc3)cc([C@H]3CC[C@H](O)CC3)n2n1 [Compound 228, 5-(7-((1r,4S)-4-hydroxycyclohexyl)-2-(((S)-1-methoxypropan-2-yl)amino)pyrrolo[2,1-f][1,2,4]triazin-5-yl)-N-isopropylpicolinamide] | ≤ 100 nM | ≤ 100 nM | +++ (“+++” represents a ratio of >100) |
| CCCCC[C@H](C)Nc1ncc2c(-c3ccc(CN4CCN(C)CC4)cc3)cc([C@H]3CC[C@H](O)CC3)n2n1 [Compound 104] | ≤ 100 nM | ≤ 100 nM | ++ (“++” represents a ratio of between 10 and 100) |
| COC[C@H](C)Nc1ncc2c(-c3cnn(CC(=O)N4CCN(C)CC4)c3)cc([C@H]3CC[C@H](O)CC3)n2n1 [Compound 240] | ≤ 100 nM | ≤ 100 nM | +++ (“+++” represents a ratio of >100) |
| CNC(=O)Cn1cc(-c2cc([C@H]3CC[C@H](O)CC3)n3nc(N[C@@H](C)COC)ncc23)cn1 [Compound 241] | ≤ 100 nM | ≤ 100 nM | +++ (“+++” represents a ratio of >100) |
| COCCn1cc(-c2cc([C@H]3CC[C@H](O)CC3)n3nc(N[C@@H](C)CC(F)(F)F)ncc23)cn1 [Compound 262] | ≤ 100 nM | ≤ 100 nM | +++ (“+++” represents a ratio of >100) |
| COC[C@H](C)Nc1ncc2c(-c3cncc(C(=O)N4CCCC4)c3)cc([C@H]3CC[C@H](O)CC3)n2n1 [Compound 232] | ≤ 100 nM | ≤ 100 nM | +++ (“+++” represents a ratio of >100) |
| CC(Nc1ncc2c(-c3ccc(CN4CCOCC4)cc3)cc(C3CCC(O)CC3)n2n1)C(F)(F)F (stereo not drawn) [Compound 202] | ≤ 100 nM | ≤ 100 nM | +++ (“+++” represents a ratio of >100) |
| COC[C@H](C)Nc1ncc2c(-c3cncc(F)c3)cc([C@H]3CC[C@H](O)CC3)n2n1 [Compound 195] | ≤ 100 nM | ≤ 100 nM | +++ (“+++” represents a ratio of >100) |
| CCCCC[C@H](C)Nc1ncc2c(-c3ccc(CN4CCN(C)CC4)cc3)cc([C@H]3CC[C@@H](O)CC3)n2n1 [Compound 105] | ≤ 100 nM | ≤ 100 nM | + (“+” represents a ratio of >2.0 and <10) |
| CC(C)OC[C@H](C)Nc1ncc2c(-c3ccc(CN4CCOCC4)cc3)cc([C@H]3CC[C@H](O)CC3)n2n1 [Compound 214] | ≤ 100 nM | ≤ 100 nM | +++ (“+++” represents a ratio of >100) |
| COC[C@H](C)Nc1ncc2c(-c3ccc(N4CCOCC4)nc3)cc([C@H]3CC[C@H](O)CC3)n2n1 [Compound 254] | ≤ 100 nM | ≤ 100 nM | +++ (“+++” represents a ratio of >100) |
| COC[C@H](C)Nc1ncc2c(-c3cnn(CC(=O)N[C@H]4CCOC4)c3)cc([C@H]3CC[C@H](O)CC3)n2n1 [Compound 237] | ≤ 100 nM | ≤ 100 nM | +++ (“+++” represents a ratio of >100) |
| COC[C@H](C)Nc1ncc2c(-c3cnn(CC(=O)N(C)C)c3)cc([C@H]3CC[C@H](O)CC3)n2n1 [Compound 238] | ≤ 100 nM | ≤ 100 nM | +++ (“+++” represents a ratio of >100) |
